Results on 2 molecules are retold here after patent US20230158034A1, “CO-TREATMENT WITH CDK4/6 AND CDK2 INHIBITORS TO SUPPRESS TUMOR ADAPTATION TO CDK2 INHIBITORS” (Pfizer Inc., priority 2020, published 2023).

Test [1] concerns CDK2 activity (DHB sensor phosphorylation). Description: DHB-based CDK2 activity sensor, single-cell time-lapse imaging (C/N ratio). Also on record: species or system human. The text has this:
(§1) The DHB sensor is localized to the nucleus when it is not phosphorylated. Upon phosphorylation, the nuclear localization signal is masked, the nuclear export signal is unmasked, and the sensor steadily translocates to the cytoplasm in response to increasing CDK2 activity (FIG. 1A). Thus, kinase activity can be quantified by the ratio of the cytoplasmic to nuclear fluorescence intensity (C/N ratio) of the DHB sensor. […] Asynchronously cycling cells were first imaged for approximately 20 hr in the absence of drug to establish the cell-cycle phase of each cell; the movie was then paused to add drug, and then imaging was continued for another 1-2 days. Because the cells were cycling asynchronously, all cell-cycle phases with one drug treatment were sampled. This allowed the present inventors to computationally isolate traces for cells that received drug at any time since the completion of anaphase.
(§2) Cells were seeded at least 24 hr prior to imaging in phenol-red-free full-growth medium in glass-bottom 96-well plates (CellVis P96-1.5H-N) that were coated with collagen prior to seeding. The seeding density was chosen such that the cells would remain sub-confluent until the end of the imaging period. Cells were first imaged for 16-20 hr in full-growth media without drug. The movie was then briefly paused and the full-growth media was replaced with full-growth media containing drug at the desired concentration. The plate was then re-inserted into the microscope and aligned to its prior position and imaging was continued for an additional 24-48 hr. Images were acquired every 12 min (for MCF10A or RPE-hTERT) or every 20 min (for MCF7 or OVCAR3) on a Nikon Eclipse Ti or Ti2 microscope with a 10×0.45 NA objective in a humidified, 37° C. chamber at 5% CO2. Exposure times for all movies for all channels were kept under 500 ms per timepoint to minimize phototoxicity. Cell tracking was performed using published MATLAB scripts (Cappell et al., 2016), as described previously (Arora et al., 2017). The tracking code is available for download at https://github.com/scappell/Cell_tracking. Cell counts over time were obtained by counting the number of segmented nuclei in each frame of the movie.
Asynchronously cycling cells that divided and received drug treatments during the imaging period were initially segmented into categories based on the cells' time of anaphase relative to the time of drug addition. These cells were then additionally subcategorized based on their DHB cytoplasmic/nuclear (C/N) ratio after the mitotic event. C/N ratio was calculated by quantifying the ratio of cytoplasmic to nuclear mean DHB fluorescence, with the cytoplasmic component calculated as the mean of the top 50th percentile of a ring of pixels outside of the nuclear mask.
Cells were classified as CDK2^inc if the DHB C/N ratio was above 0.5 units 3 hr after anaphase, otherwise they were classified as CDK2^low. Figure legends indicate whether only CDK2^inc cells or whether all cells are plotted. The median of the single-cell traces in a subcategory was then used to create median trace with 95% confidence interval representative of the particular subcategory. All cell trace analysis was done using custom MATLAB scripts and code is available upon request.

In test [2] the test system is Rb, Nucleolin, Cdc6 and Nbs1 phosphorylation. In words: Immunofluorescence and western blotting of endogenous CDK2 substrates. Particulars: 10 μM 3 MB-PP1 for 1 hr, RPE-hTERT CDK2^F80G/F80G cells. The test is classed as cell-based, human. On the procedure: Cells were fixed for 15 minutes with freshly prepared 4% paraformaldehyde, washed twice with PBS, and incubated with a blocking buffer (3% BSA in PBS) for 1 hr at room temperature. Permeabilization was carried out using 0.2% Triton-X 100 for 15 min at 4° C. Primary antibody was diluted in blocking buffer and incubated with cells overnight at 4° C. followed by three washes with 1×PBS. Secondary antibodies conjugated to Alexa Fluor 488, Alexa Fluor 546 or Alexa Fluor 647 were incubated for 1 hr followed by three washes with 1×PBS. DNA was stained using Hoechst 33342 dye for 10 minutes at 1:10000 (ThermoFisher H3570). Images were acquired on a Nikon Eclipse Ti or Ti2 microscope with a 10×0.45 NA objective. DNA content was determined by taking the integrated intensity of each cell's Hoechst signal. Cells were delineated as 3-4N DNA content by plotting a histogram of DNA content and drawing a threshold and the end of the 2N peak.
Lysates were prepared using 1×LDS sample buffer (ThermoFisher NP007) using equal numbers of cells. Proteins were separated using NuPAGE precast polyacrylamide gels (ThermoFisher NP0301). Total protein was quantified using Azure Red Dye (Azure Biosystems AC2124) and was used to normalize the signal from antibodies of interest. Primary antibodies used are specified under the “Antibodies” section. HRP-conjugated or IR700 and IR800 labeled fluorescent secondary antibodies were used for visualization (Cell Signaling Technology 7074 and 7076).
Background: A western blot detects proteins with antibodies after separation by electrophoresis.

Test [3] has as its system MCF10A, RPE-hTERT, MCF7 and OVCAR3 cells. Description: Cell-cycle progression, mitosis and proliferation by time-lapse imaging. The format is cell-based, human. Particulars: 1 μM palbociclib (after the upcoming mitosis) or 9 μM RO3306 (toward end of cell cycle), MCF10A.
From the text: as §1, §2

Molecules are shown by their SMILES.

Consider `Cc1cccc(Cc2nn(C(C)(C)C)c3ncnc(N)c23)c1` [3 MB-PP1, 1-(tert-butyl)-3-(3-methylbenzyl)-1H-pyrazolo[3,4-d]pyrimidin-4-amine], for which the DHB sensor phosphorylation entry in test [1] (10 μM 3 MB-PP1, RPE-hTERT CDK2^F80G/F80G cells) is recorded as “reduction in DHB sensor phosphorylation that quickly rebounded”; in test [1] (10 μM 3 MB-PP1, wild-type RPE-hTERT cells), “not affected”. Further, in test [2], the Nbs1 phosphorylation result is “loss of Nbs1 phosphorylation”.

On to `O=C1NC(=NCc2cccs2)S/C1=C\c1ccc2ncccc2c1` [RO3306], for which the “DHB phosphorylation in RPE-hTERT CDK2^F80G/F80G cells as compared to wild-type RPE-hTERT cells” value in test [1] (9 μM RO3306) was “much greater drop in DHB phosphorylation”. Further, the “effect on DHB sensor phosphorylation” value in test [1] (9 μM RO3306, MCF10A) is “minimal immediate effect”. For the same molecule, in test [3], the cell-cycle arrest entry is recorded as “G2 arrest”.
